According to patent US20240366729A1, “COMBINATION OF A NURR1 AGONIST WITH AT LEAST ONE OF AN ALDOSTERONE ANTAGONIST, AN INSULIN MODULATOR AND A SULFONYLUREA” (GENESIS PHARMA SA, priority 2021, published 2024):
Entries after “also recorded” stand apart in the source; their conditions may differ.

What was measured:
[1] = tested on: rat model of transient middle cerebral artery occlusion (t-MCAO); assay: Neurological score (NSS), rat t-MCAO model, 7-day treatment (Example 2); assay type: in vivo; settings: for Neurological score (NSS) vs vehicle: Day 1 and Day 8
Procedure: The study was performed in cycles, each one containing at least nine rats. Test compounds were administrated 20 minutes before reperfusion and twice a day thereafter. On Day 1, stroke was induced by the t-MCAO procedure. Neurological score (NSS), was performed before surgery, 24 hours and 7 days after t-MCAO. At study termination brains were harvested, sliced into five 2 mm thick coronal sections and stained with TTC for infarct size measurement. The experimental design and timeline for the two parts of the study are presented below.
The right Common Carotid artery (CCA) was exposed through a midline neck incision and carefully dissected free from surrounding nerves and fascia—from its bifurcation to the base of the skull. The Occipital artery branches of the External Carotid artery (ECA) were isolated, and these branches were dissected and coagulated. The ECA was dissected further distally and coagulated along with the terminal lingual and maxillary artery branches, just before their bifurcation. The Internal Carotid artery (ICA) was isolated and carefully separated from the adjacent Vagus nerve, and the Pterygopalatine artery was ligated close to its origin with a 5-0 nylon suture. […] The surgical wound was closed and the animals were returned to their cages to recover from anesthesia. One hour and half after occlusion rats were re-anesthetized and monofilament was withdrawn to allow reperfusion. The surgical wound was closed and rats were returned to their cages. Following surgery, animals were placed on a heating pad until their recovery from the anesthesia. All animals received subcutaneous Meloxicam at 2 mg/kg before and after surgery, daily during the next two days. They were observed frequently on the day of t-MCAO surgery and at least once daily thereafter.
Treatment was start 20 minutes before reperfusion and then at the end of the same day, via IP administration of the test compounds. Treatment continued twice a day for six consecutive days thereafter.
Neuroscore was graded on a scale of 0 to 18 (in which normal score is 0 and maximal deficit score is represented by 18).

[2] = target: Nurr1 (Homo sapiens, UniProt P43354); settings: through physical interaction with its ligand binding domain (LBD); cited from earlier work
Nurr1, sequence (P43354 whole entry, species assumed, the tested form may be a part): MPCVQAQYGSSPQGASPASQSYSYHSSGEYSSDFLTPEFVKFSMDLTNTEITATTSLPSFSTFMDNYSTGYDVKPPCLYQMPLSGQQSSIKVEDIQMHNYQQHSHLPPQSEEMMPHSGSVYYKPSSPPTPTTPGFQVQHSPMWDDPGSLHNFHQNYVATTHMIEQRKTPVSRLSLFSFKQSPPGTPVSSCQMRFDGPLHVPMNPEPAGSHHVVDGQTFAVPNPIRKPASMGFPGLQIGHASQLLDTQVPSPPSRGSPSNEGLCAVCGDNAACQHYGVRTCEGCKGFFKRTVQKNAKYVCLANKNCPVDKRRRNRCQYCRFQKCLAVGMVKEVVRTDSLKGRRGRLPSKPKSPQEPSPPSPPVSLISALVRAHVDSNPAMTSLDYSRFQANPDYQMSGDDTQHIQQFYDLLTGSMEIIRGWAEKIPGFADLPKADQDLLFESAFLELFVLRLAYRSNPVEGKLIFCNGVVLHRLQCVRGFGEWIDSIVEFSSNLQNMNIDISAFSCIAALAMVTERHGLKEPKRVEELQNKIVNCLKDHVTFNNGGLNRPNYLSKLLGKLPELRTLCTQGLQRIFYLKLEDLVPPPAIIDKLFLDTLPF

[3] = tested on: rat superior mesenteric arteries; settings: cited from earlier work
[4] = tested on: mouse model of intracerebral haemorrhage (ICH); settings: 40 mg/kg, cited from earlier work
[5] = tested on: rodent models of brain ischemia and reperfusion injury; settings: 1 mg/kg administered 10 min before reperfusion; cited from earlier work
[6] = tested on: rodent models of subarachnoid hemorrhage; settings: loading dose 10 μg/kg intraperitoneally, then infusion 200 ng/hr for 24 hours or one week; cited from earlier work
[7] = tested on: rat thromboembolic model of stroke; settings: continuous infusion 75 ng/h; 7 days post middle cerebral artery occlusion; cited from earlier work
[8] = tested on: experimental intracerebral hemorrhage in mice; settings: 10 μg either before or at 2 h after hemorrhage; cited from earlier work
[9] = tested on: collagenase-induced intracerebral hemorrhage; settings: 10 μg/kg loading dose followed by 200 ng/h for up to 7 days; cited from earlier work
[10] = tested on: patients with large hemispheric infarctions; settings: intravenous 0.13 mg bolus, 0.16 mg/h for 6 h, then 0.11 mg/h for 66 h; cited from earlier work
[11] = tested on: patients with acute hemispheric infarction; settings: oral administration; cited from earlier work
[12] = tested on: rat model of stroke (middle cerebral artery occlusion); settings: 10 μg/kg IP loading dose plus 200 ng/h subcutaneous infusion beginning 4.5 h or 10 h after onset of ischemia; cited from earlier work
[13] = tested on: rat model of transient middle cerebral artery occlusion (t-MCAO); assay: Brain infarct size (TTC staining, ImageJ), rat t-MCAO model, Example 2; assay type: in vivo; settings: at termination; amodiaquine 0.5 mg/kg, potassium canrenoate 0.33 mg/kg, glibenclamide 1 μg/kg, exenatide 0.05 μg/kg; vehicle 38%

SMILES: CCN(CC)Cc1cc(Nc2ccnc3cc(Cl)ccc23)ccc1O [Amodiaquine, 4-[(7-chloroquinolin-4-yl)amino]-2[(diethylamino)methyl]-phenol]
- Neurological score (NSS) vs vehicle ([1]; amodiaquine 0.5 mg/kg (Group 5M), 20 min before reperfusion and twice a day): Statistically significant differences; also recorded: statistically significant NSS improvement
- Neurological score (NSS) vs vehicle ([1]; amodiaquine 7 mg/kg (Group 3M), 20 min before reperfusion and twice a day): Statistically significant differences; also recorded: statistically significant NSS improvement
- Neurological score (NSS) vs vehicle ([1]; amodiaquine 20 mg/kg (Group 2M), 20 min before reperfusion and twice a day): Statistically significant differences; also recorded: statistically significant NSS improvement
- Neurological score (NSS) vs vehicle, monotherapy at different doses ([1]; amodiaquine 0.5-20 mg/kg): improved significantly and dose dependently the neurological score
- Transcriptional function of Nurr1 [2]: stimulate the transcriptional function of Nurr1
- Vasorelaxation [3]: induce vasorelaxation
- Perihematomal activation of microglia/macrophages and astrocytes ([4]; i.p. daily from 3 h after ICH induction): diminished perihematomal activation of microglia/macrophages and astrocytes
- ICH-induced mRNA expression of IL-1β, CCL2 and CXCL2 ([4]; i.p. daily): suppressed ICH-induced mRNA expression of IL-1β, CCL2 and CXCL2
- Motor dysfunction ([4]; i.p. daily): ameliorated motor dysfunction

SMILES: COc1ccc(Cl)cc1C(=O)NCCc1ccc(S(=O)(=O)NC(=O)NC2CCCCC2)cc1 [Glibenclamide, 5-chloro-N-[2-[4-(cyclohexylcarbamoyl-sulfamoyl)phenyl]ethyl]-2-methoxybenzamide]
- Efficacy in brain ischemia and reperfusion injury [5]: effective
- Efficacy in subarachnoid hemorrhage [6]: effective
- Reduction of cerebral edema, infarct volume and mortality [7]: 50%
- Cerebral edema, BBB disruption and neurological deficit [8]: alleviate cerebral edema, disrupted BBB, and neurological deficit
- Efficacy in collagenase intracerebral hemorrhage [9]: not effective
- Brain swelling (midline shift), MMP-9, functional outcomes and mortality [10]: promising findings
- 6-month functional outcome [11]: did not substantially improve 6-month functional outcome
- Safety of treatment [11]: safe
- Hemispheric swelling, mortality and Garcia scores [12]: significantly reduced hemispheric swelling at 24 h and 48-h mortality and improved Garcia scores at 48 h

SMILES: C[C@]12CCC(=O)C=C1C=C[C@@H]1[C@@H]2CC[C@@]2(C)[C@H]1CC[C@@]2(O)CCC(=O)[O-].[K+] [Potassium canrenoate, potassium 3-[(8R,9S,10R,13S,14S,17R)-17-hydroxy-10,13-dimethyl-3-oxo-2,8,9,11,12,14,15,16-octahydro-1H-cyclopenta[a]phenanthren-17-yl]propanoate]
- Neurological score (NSS) vs vehicle, Part II ([1]; Day 1, amodiaquine 0.5 mg/kg, potassium canrenoate 0.33 mg/kg, glibenclamide 1 μg/kg, exenatide 0.05 μg/kg, 20 min before reperfusion and twice a day): Statistically significant differences
- Brain infarct size vs vehicle, Part II [13]: Statistically significant differences in infarct size; also recorded: Less prominent decrease in infarct volume

SMILES: CCN(CC)CCCC(C)Nc1ccnc2cc(Cl)ccc12 (stereo not drawn) [chloroquine]
- Transcriptional function of Nurr1 [2]: stimulate the transcriptional function of Nurr1
